Test results as given in patent publication EP0107214A2, “Pharmaceutical compositions containing benzoyl-phenyl ureas with anti-tumour activity” (DUPHAR INTERNATIONAL RESEARCH B.V, priority 1982, dated 1984).
Like-named read-outs stand apart in the source and are kept apart here.

Columns and labels:
[1] = tested on: B-16 malignant melanoma; assay: B-16 malignant melanoma in C57BL/6 mice, tumor growth after intraperitoneal injection; assay type: in vivo
Procedure: The compounds were tested by intraperitoneal injections of suspensions of the compounds in an aqueous solution of polyvinyl pyrrolidone.
Mice with malignant melanomas were injected with 20 mg or 40 mg diflubenzuron in suspension or with the suspension medium (blank).
Finally compound 2) was given in doses of 20 mg each on days 0, 1 and 2.
Animals with growing tumors were treated with 100 mg of diflubenzuron alone (suspended in an aqueous solution of polyvinylpyrrolidone) or in combination with a metabolic inhibitor or a metabolic inducer according to the schedule given in Table XI.

[2] = tested on: melanoma B-16 cells; assay: Malignant melanoma B-16 cells in vitro, cell count by Coulter Counter; assay type: cell-based; conditions: Mus musculus; for activity at 500 µg/mL / activity at 5000 µg/mL: B16, 20 hours incubation, cells counted at 48 hours; for activity at 500 µg/mL: read-out: Percentage of controll cell growth when tested in an amount of 5 x 10^2 µg/ml; for activity at 5000 µg/mL: read-out: Percentage of controll cell growth when tested in an amount of 5 x 10^3 µg/ml; for activity at 50 µg/mL / activity at 300 µg/mL / activity at 200 µg/mL: B16, 48 h; for activity at 50 µg/mL: 50 ug/ml; for activity at 300 µg/mL: 300 ug/ml; for activity at 200 µg/mL: 200 ug/ml
Procedure: Cells of malignant melanomas B-16 grow as a monolayer. The doubling time of this type of cells in a cell--culture is 12 to 16 hours. For this experiment 6 multi-well tissue culture plates having a flat bottom with a surface area of 6 cm^2 appeared to be suitable and have been used.
On day 0 a quantity of melanoma B-16 cells were brought on the cell-culture plates.
The test compounds were sonicated and then incubated without cells for 3 hours at 37°C.
Then the compound to be tested was administered to the plates with melanoma B-16 cells in the desired quantity (each test was done in triplicate). Thereafter the plates were incubated in a C02-incubator for 20 hours at 37°C. Then the incubation was stopped by removing the culture medium containing the test compound, the cells were washed twice, and fresh culture medium was added.
48 Hours after starting the incubation step the number of cells on each plate was measured by means of a microcell Coulter Counter. The results so obtained have been expressed as "percentage of controll cell growth".
In the above experiment the compounds to be tested have been used in the form of a suspension. Since it is not quite clear how much of the active compounds is dissolved, the above results cannot be compared very well.
Therefore a number of compounds has been dissolved in ethanol.

[3] = 10 mg each on days 0, 1, 2, 3 and 4
[4] = 20 mg each on days 0, 1, 2, 3 and 4
[5] = 100 mg total, 20 mg each on day 0, 1, 2, 3 and 4
[6] = dissolved in ethanol, read-out: Percentage of controll cell growth (solution)
[7] = suspension, read-out: Percentage of controll cell growth (suspension)

O=C(NC(=O)c1c(Cl)cccc1Cl)Nc1ccc(Cl)cc1 [Compound 17, 1-(2,6-dichlorobenzoyl)-3-(4-chlorophenyl)urea]
Mean tumor Mass Day 1 [1, 3]: 347

O=C(NC(=O)c1c(F)cccc1F)Nc1ccc(OC(F)(F)C(F)C(F)(F)F)cc1 (stereo not shown) [Compound 11]
Mean tumor Mass Day 1 [1, 4]: 193

O=C(NC(=O)c1c(F)cccc1F)Nc1ccc(Oc2ccc(Cl)cc2)c(Cl)c1 [Compound 3, 1-(2,6-difluorobenzoyl)-3-[3-chloro-4-(4-chlorophenoxy)phenyl]urea]
Mean tumor Mass Day 1 [1, 4]: 127 | activity at 500 µg/mL ([2]; suspension): 33% | activity at 5000 µg/mL ([2]; suspension): 8%

O=C(NC(=O)c1ccccc1Cl)Nc1ccc(OC(F)(F)F)cc1O [Compound 9, 1-(2-chlorobenzoyl)-3-(2-hydroxy-4-trifluoromethoxyphenyl)urea]
activity at 500 µg/mL ([2]; suspension): 100% | activity at 5000 µg/mL ([2]; suspension): 70%

O=C(NC(=O)c1c(F)cccc1F)Nc1ccc(Cl)cc1O [Compound 7]
% change in tumor mass day 1 [1, 5]: -23.4 (12) % | % change in tumor mass day 2 [1, 5]: -17.4 (12) % | % change in tumor mass day 3 [1, 5]: 25.1 (12) % | % change in tumor mass day 4 [1, 5]: 74.7 (10) % | % change in tumor mass day 5 [1, 5]: 127 (10) % | % change in tumor mass on day 11 [1, 5]: 699 (10) % | antitumor effect compared with parent compound diflubenzuron (in words) [1, 5]: more effective | activity at 50 µg/mL [2, 6]: 39% | activity at 50 µg/mL [2, 7]: 103% | activity at 300 µg/mL [2, 6]: 0% | activity at 300 µg/mL [2, 7]: 103%

O=C(NC(=O)c1ccccc1Cl)Nc1ccc(C(F)(F)F)cc1O [Compound 21, 1-(2-chlorobenzoyl)-3-(2-hydroxy-4-trifluoromethylphenyl)urea]
activity at 300 µg/mL [2, 6]: 43% | activity at 300 µg/mL [2, 7]: 50% | activity at 500 µg/mL ([2]; suspension): 101% | activity at 5000 µg/mL ([2]; suspension): 71%

O=C(NC(=O)c1c(Cl)cccc1Cl)Nc1ccc(C(F)(F)F)cc1 [Compound 18, 1-(2,6-dichlorobenzoyl)-3-(4-trifluoromethylphenyl)urea]
Mean tumor Mass Day 1 [1, 3]: 314

O=C(NC(=O)c1ccccc1)Nc1ccc(Cl)cc1 [Compound 19, 1-benzoyl-3-(4-chlorophenyl)urea]
Mean tumor Mass Day 1 [1, 4]: 159

N#Cc1ccc(NC(=O)NC(=O)c2c(F)cccc2F)cc1 [Compound 10, l-(2,6-difluorobenzoyl)-3-(4-cyanophenyl)urea]
Mean tumor Mass Day 1 [1, 4]: 183

O=C(NC(=O)c1c(F)cccc1F)Nc1ccc(C(F)(F)F)cc1O [Compound 20, 1-(2,6-difluorobenzoyl)-3-(2-hydroxy-4-trifluoromethylphenyl)urea]
activity at 500 µg/mL ([2]; suspension): 91% | activity at 5000 µg/mL ([2]; suspension): 81%

O=C(NC(=O)c1c(F)cccc1F)Nc1cc(Cl)c(Oc2ncc(C(F)(F)F)cc2Cl)c(Cl)c1 [Compound 2, 1-(2,6-difluorobenzoyl)-3-[3,5-dichloro-4-(3-chloro-5--trifluoromethyl-2-pyridyloxy)phenyl]urea]
Mean tumor Mass Day 1 ([1]; 20 mg each on days 0, 1 and 2): 191 | activity at 200 µg/mL [2, 6]: 72% | activity at 200 µg/mL [2, 7]: 114%

Cc1ccc2cc3c(ccc4ccccc43)c3c2c1CC3 [3-methylcholanthrene, 3-Methylcholanthrene, reference compound]
% change in tumor mass day 1 ([1]; mouse, in vivo): 122 (6) % | % change in tumor mass day 2 ([1]; mouse, in vivo): 223 (6) % | % change in tumor mass day 3 ([1]; mouse, in vivo): 364 (6) % | % change in tumor mass day 4 ([1]; mouse, in vivo): 417 (6) % | % change in tumor mass day 5 ([1]; mouse, in vivo): 363 (6) %

O=C(NC(=O)c1ccccc1Cl)Nc1ccc(Cl)cc1 [Compound 5, 1-(2-chlorobenzoyl)-3-(4-chlorophenyl)urea]
Mean tumor Mass Day 1 [1, 4]: 198 | activity at 500 µg/mL ([2]; suspension): 98% | activity at 5000 µg/mL ([2]; suspension): 86%

O=C(NC(=O)c1c(F)cccc1F)Nc1ccc(O)cc1 [Compound 12, 1-(2,6-difluorobenzoyl)-3-(4 :aydroxyphenyl)urea]
Mean tumor Mass Day 1 [1, 4]: 148

O=C(NC(=O)c1ccccc1Cl)Nc1ccc(OC(F)(F)F)cc1 [Compound 6, l-(2-chlorobenzoyl)-3-(4-trifluoromethoxyphenyl)urea]
Mean tumor Mass Day 1 [1, 4]: 229 | activity at 300 µg/mL [2, 6]: 95% | activity at 300 µg/mL [2, 7]: 88%

O=C(NC(=O)c1c(F)cccc1F)Nc1ccc(Cl)c(Cl)c1 [Compound 15, 1-(2,6-difluorobenzoyl)-3-(3,4-dichlorophenyl)urea]
Mean tumor Mass Day 1 [1, 4]: 151

O=C(NC(=O)c1c(F)cccc1F)Nc1ccc(C2CCCCC2)cc1 [Compound 13, l-(2,6-difluorobenzoyl)-3-(4-cyclohexylphenyl)urea]
Mean tumor Mass Day 1 [1, 3]: 205

O=C(NC(=O)c1c(F)cccc1F)Nc1ccc(Cl)c(O)c1 [Compound 8, 1-(2,6-difluorobenzoyl)-3-(4-chloro-3-hydroxyphenyl)urea]
% change in tumor mass day 1 [1, 5]: 39.5 (12) % | % change in tumor mass day 2 [1, 5]: 52.4 (12) % | % change in tumor mass day 3 [1, 5]: 91.2 (12) % | % change in tumor mass day 4 [1, 5]: 149 (12) % | % change in tumor mass day 5 [1, 5]: 223 (12) % | % change in tumor mass on day 11 [1, 5]: 930 (12) % | antitumor effect compared with parent compound diflubenzuron (in words) [1, 5]: not active at all | activity at 300 µg/mL [2, 6]: 0% | activity at 300 µg/mL [2, 7]: 63% | activity at 500 µg/mL ([2]; suspension): 51% | activity at 5000 µg/mL ([2]; suspension): 53%
